This passage reports IC50 results from ChEMBL document CHEMBL1201861, “Genomics of Drug Sensitity in Cancer screening data, Wellcome Trust Sanger Institute”.

SMILES strings stand for the structures. pIC50: −log10 of the molar value.

As a reminder, the pIC50 is −log10 of the IC50, conventionally taken in molar units.

One assay relates to BALL-1. Nature of the assay: cells. Conditions: Homo sapiens. The format is functional, cell-based.
The next assay deals with LU-135. In words: cells. The format is functional, cell-based. Particulars: Homo sapiens.
Another assay has as its system H-EMC-SS. In words: cells. The assay is classed as functional, cell-based. Conditions: Homo sapiens.
The test system of another assay is NBsusSR. Nature of the assay: cells. The assay is classed as functional, cell-based. Conditions: Homo sapiens.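 Note: growth inhibition of the human cell line, read out with a cell viability assay.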
Another assay has as its system KNS-62. Nature of the assay: cells. The format is functional, cell-based. Particulars: Homo sapiens.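 Note: inhibition of cell growth, read out with a cell viability assay.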
The next assay relates to NCI-H1573. In words: cells. The assay is classed as functional, cell-based. Particulars: Homo sapiens.
A further assay concerns ZR-75-30. In words: cells. The format is functional, cell-based. Conditions: Homo sapiens.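 Note: growth inhibition of ZR-75-30 cells, measured with a cell viability readout.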
Another assay deals with HSC-4. Nature of the assay: cells. The assay is classed as functional, cell-based, Homo sapiens. Conditions: Homo sapiens, HSC-4.
The subject of the next assay is D-566MG. In words: cells. The format is functional, cell-based. Conditions: Homo sapiens.
The test system of another assay is TI-73. In words: cells. The assay is classed as functional, cell-based. Particulars: Homo sapiens.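 Note: cell viability assay measuring how much compounds suppress growth of the cultured cell line.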
The next assay concerns OC-314. Nature of the assay: cells. Particulars: Homo sapiens. The assay is classed as functional, cell-based.
A further assay concerns NCI-H2009. In words: cells. The format is functional, cell-based, Homo sapiens. Particulars: Homo sapiens, NCI-H2009.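 Note: cell viability assay measuring inhibition of NCI-H2009 cell growth.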
A further assay relates to NCI-H719. In words: cells. The format is functional, cell-based. Conditions: Homo sapiens.
The next assay relates to SCC-3. Nature of the assay: cells. The format is functional, cell-based. Conditions: Homo sapiens.
Another assay has as its system SIG-M5. In words: cells. The format is functional, cell-based. Conditions: Homo sapiens.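 Note: cell viability assay read-out, measuring how strongly growth of cultured human SIG-M5 cells is inhibited.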
The next assay has as its system NCCIT. In words: SANGER: Inhibition of human NCCIT cell growth in a cell viability assay. The assay is classed as functional, cell-based.
Another assay deals with NCI-H187. Nature of the assay: cells. The format is functional, cell-based. Conditions: Homo sapiens.
In another assay the test system is TUR. Nature of the assay: cells. The assay is classed as functional, cell-based. Conditions: Homo sapiens.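 Note: growth inhibition of human TUR cells, read out with a cell viability assay.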
The subject of a further assay is ARH-77. Nature of the assay: cells. The assay is classed as functional, cell-based. Particulars: Homo sapiens.
The next assay concerns RL95-2. Nature of the assay: cells. The assay is classed as functional, cell-based. Conditions: Homo sapiens.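 Note: RL95-2 growth inhibition determined through a cell viability readout.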
In a further assay the test system is EB2. Nature of the assay: cells. The format is functional, cell-based. Particulars: Homo sapiens.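 Note: growth inhibition of EB2 cells, read out with a cell viability assay.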
Another assay concerns THP-1. Nature of the assay: cells. The assay is classed as functional, cell-based. Conditions: Homo sapiens.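 Note: growth inhibition of THP-1 cells, read out via a cell viability assay.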
The subject of a further assay is CHP-126. Nature of the assay: cells. Particulars: Homo sapiens. The assay is classed as functional, cell-based.
In another assay the test system is SR. In words: cells. The format is functional, cell-based. Conditions: Homo sapiens.
In a further assay the test system is MONO-MAC-6. Nature of the assay: cells. The assay is classed as functional, cell-based. Particulars: Homo sapiens.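 Note: cell viability assay measuring growth inhibition of human MONO-MAC-6 cells.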
For another assay, the system named is NB1. Nature of the assay: cells. The assay is classed as functional, cell-based. Particulars: Homo sapiens.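 Note: reduction of NB1 cell proliferation, read out with a viability assay.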
For the next assay, the system named is LC4-1. In words: cells. The assay is classed as functional, cell-based. Particulars: Homo sapiens.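 Note: growth inhibition of LC4-1 cells, read out with a cell viability assay.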
The test system of a further assay is NCI-H322M. In words: cells. The assay is classed as functional, cell-based. Conditions: Homo sapiens.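 Note: cell viability assay measuring inhibition of growth of human NCI-H322M cells.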
A further assay relates to OPM-2. In words: cells. The assay is classed as functional, cell-based. Conditions: Homo sapiens.
For another assay, the system named is NCI-H1963. Nature of the assay: cells. The format is functional, cell-based. Conditions: Homo sapiens.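 Note: cell growth inhibition of the human line, determined with a cell viability assay.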
For the next assay, the system named is NCI-H716. Nature of the assay: cells. The assay is classed as functional, cell-based. Particulars: Homo sapiens.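 Note: growth inhibition of human NCI-H716 cells, measured by a cell viability assay.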
The test system of a further assay is NCI-H128. In words: SANGER: Inhibition of human NCI-H128 cell growth in a cell viability assay. The format is functional, cell-based.
The test system of the next assay is LC-1F. In words: cells. Particulars: Homo sapiens. The format is functional, cell-based.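 Note: growth inhibition of human LC-1F cells, read out with a cell viability assay.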
The test system of the next assay is NCI-H2196. Nature of the assay: cells. Conditions: Homo sapiens. The format is functional, cell-based.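 Note: cell viability assay used as the readout of growth inhibition in NCI-H2196 cells.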
The test system of another assay is NCI-H2227. Nature of the assay: cells. The assay is classed as functional, cell-based. Particulars: Homo sapiens.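 Note: growth inhibition of the human cell line, read out with a cell viability assay.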
A further assay deals with RPMI 8402. In words: SANGER: Inhibition of human RPMI-8402 cell growth in a cell viability assay. The assay is classed as functional, cell-based.
The test system of another assay is NCI-H2171. Nature of the assay: cells. The assay is classed as functional, cell-based. Conditions: Homo sapiens.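 Note: growth inhibition of human NCI-H2171 cells, read out by a cell viability assay.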
In the next assay the test system is P31-FUJ. Nature of the assay: cells. The assay is classed as functional, cell-based. Conditions: Homo sapiens.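 Note: growth inhibition of P31-FUJ cells, read out with a viability assay.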
The subject of a further assay is SKM-1. Nature of the assay: SANGER: Inhibition of human SKM-1 cell growth in a cell viability assay. The format is functional, cell-based.
Another assay relates to BOKU. In words: cells. The format is functional, cell-based. Particulars: Homo sapiens.

Description for ARH-77: SANGER: Inhibition of human ARH-77 cell growth in a cell viability assay.
Description for BALL-1: SANGER: Inhibition of human BALL-1 cell growth in a cell viability assay.
Description for BOKU: SANGER: Inhibition of human BOKU cell growth in a cell viability assay.
Description for CHP-126: SANGER: Inhibition of human CHP-126 cell growth in a cell viability assay.
Description for EB2: SANGER: Inhibition of human EB2 cell growth in a cell viability assay.
Description for H-EMC-SS: SANGER: Inhibition of human H-EMC-SS cell growth in a cell viability assay.
Description for HSC-4: SANGER: Inhibition of human HSC-4 cell growth in a cell viability assay.
Description for KNS-62: SANGER: Inhibition of human KNS-62 cell growth in a cell viability assay.
Description for LC-1F: SANGER: Inhibition of human LC-1F cell growth in a cell viability assay.
Description for LC4-1: SANGER: Inhibition of human LC4-1 cell growth in a cell viability assay.
Description for LU-135: SANGER: Inhibition of human LU-135 cell growth in a cell viability assay.
Description for MONO-MAC-6: SANGER: Inhibition of human MONO-MAC-6 cell growth in a cell viability assay.
Description for NB1: SANGER: Inhibition of human NB1 cell growth in a cell viability assay.
Description for NBsusSR: SANGER: Inhibition of human NBsusSR cell growth in a cell viability assay.
Description for NCI-H1573: SANGER: Inhibition of human NCI-H1573 cell growth in a cell viability assay.
Description for NCI-H187: SANGER: Inhibition of human NCI-H187 cell growth in a cell viability assay.
Description for NCI-H1963: SANGER: Inhibition of human NCI-H1963 cell growth in a cell viability assay.
Description for NCI-H2009: SANGER: Inhibition of human NCI-H2009 cell growth in a cell viability assay.
Description for NCI-H2171: SANGER: Inhibition of human NCI-H2171 cell growth in a cell viability assay.
Description for NCI-H2196: SANGER: Inhibition of human NCI-H2196 cell growth in a cell viability assay.
Description for NCI-H2227: SANGER: Inhibition of human NCI-H2227 cell growth in a cell viability assay.
Description for NCI-H322M: SANGER: Inhibition of human NCI-H322M cell growth in a cell viability assay.
Description for NCI-H716: SANGER: Inhibition of human NCI-H716 cell growth in a cell viability assay.
Description for NCI-H719: SANGER: Inhibition of human NCI-H719 cell growth in a cell viability assay.
Description for OC-314: SANGER: Inhibition of human OC-314 cell growth in a cell viability assay.
Description for OPM-2: SANGER: Inhibition of human OPM-2 cell growth in a cell viability assay.
Description for P31-FUJ: SANGER: Inhibition of human P31-FUJ cell growth in a cell viability assay.
Description for RL95-2: SANGER: Inhibition of human RL95-2 cell growth in a cell viability assay.
Description for SCC-3: SANGER: Inhibition of human SCC-3 cell growth in a cell viability assay.
Description for SIG-M5: SANGER: Inhibition of human SIG-M5 cell growth in a cell viability assay.
Description for THP-1: SANGER: Inhibition of human THP-1 cell growth in a cell viability assay.
Description for TI-73: SANGER: Inhibition of human TI-73 cell growth in a cell viability assay.
Description for TUR: SANGER: Inhibition of human TUR cell growth in a cell viability assay.
Description for ZR-75-30: SANGER: Inhibition of human ZR-75-30 cell growth in a cell viability assay.

Regarding `O=C(c1cc(Cc2n[nH]c(=O)c3ccccc23)ccc1F)N1CCN(C(=O)C2CC2)CC1` [OLAPARIB], the pIC50 in the assay on BALL-1, in the assay with LU-135, in the assay with H-EMC-SS, in the assay with NBsusSR, in the assay on KNS-62 and with NCI-H1573 was less than 5.30 each time. The pIC50 in the assay with ZR-75-30 is less than 5.30; with HSC-4, less than 5.30; in the assay with D-566MG, 5.61; in the assay with TI-73, less than 5.30; in the assay with OC-314, less than 5.30.

As to `CC(=O)O[C@@]12CO[C@@H]1C[C@H](O)[C@@]1(C)C(=O)[C@H](O)C3=C(C)[C@@H](OC(=O)[C@H](O)[C@@H](NC(=O)OC(C)(C)C)c4ccccc4)C[C@@](O)([C@@H](OC(=O)c4ccccc4)[C@H]21)C3(C)C` [DOCETAXEL], the pIC50 is less than 8.00 with BALL-1; less than 8.00 with LU-135; less than 8.00 in the assay on H-EMC-SS; 8.96 in the assay with NBsusSR; 8.95 in the assay on KNS-62; 8.22 with NCI-H1573. Moreover, the pIC50 was less than 8.00 in the assay on ZR-75-30; 9.62 in the assay with HSC-4; 9.74 with D-566MG; 8.84 with TI-73; 8.59 in the assay with OC-314.

For `Nc1ccn([C@@H]2O[C@H](CO)[C@@H](O)[C@@H]2O)c(=O)n1` [CYTARABINE], the pIC50 in the assay with BALL-1 was less than 5.70; with LU-135, less than 5.70; with H-EMC-SS, 6.84; in the assay on NBsusSR, 6.47; in the assay on KNS-62 it was less than 5.70; in the assay with NCI-H1573, less than 5.70. The pIC50 was less than 5.70 in the assay with ZR-75-30; 6.33 in the assay on HSC-4; 6.57 in the assay on D-566MG; 6.21 with TI-73; 6.40 in the assay with OC-314; less than 5.70 in the assay on NCI-H2009.

Consider `C=C1C(=O)O[C@@H]2C3O[C@]3(C)CC/C=C(\C)CC[C@@H]12` (stereo not given in full), for which the pIC50 with NCI-H719 was less than 5.30; in the assay with SCC-3, 5.55; in the assay on SIG-M5 it was less than 5.30; in the assay with NCCIT, less than 5.30; in the assay on NCI-H187, less than 5.30; in the assay with TUR, less than 5.30. Further, the pIC50 in the assay with ARH-77, in the assay on RL95-2, with EB2, in the assay with THP-1, with CHP-126 and with SR was less than 5.30 in each case. For the same compound, the pIC50 with MONO-MAC-6, with NB1, with LC4-1, in the assay on NCI-H322M, in the assay on OPM-2 and in the assay with NCI-H1963 was less than 5.30 in each case. Also, the pIC50 in the assay on NCI-H716 was less than 5.30; with NCI-H128 it was less than 5.30; in the assay on LC-1F it was less than 5.30; with NCI-H2196, 6.19; with NCI-H2227, less than 5.30; in the assay on RPMI 8402 it was less than 5.30. Also, the pIC50 in the assay on NCI-H2171, with P31-FUJ and in the assay on SKM-1 was less than 5.30 throughout.

In the case of `CO[C@H]1C[C@@H]2CC[C@@H](C)[C@@](O)(O2)C(=O)C(=O)N2CCCC[C@H]2C(=O)O[C@H]([C@H](C)C[C@@H]2CC[C@@H](O)[C@H](OC)C2)CC(=O)[C@H](C)/C=C(\C)[C@@H](O)[C@@H](OC)C(=O)[C@H](C)C[C@H](C)/C=C/C=C/C=C/1C` [SIROLIMUS], the pIC50 with NCI-H719 was less than 7.00; in the assay with SCC-3, less than 7.00; in the assay on SIG-M5 it was 7.76; in the assay with NCCIT, less than 7.00; in the assay on NCI-H187, less than 7.00; with TUR, less than 7.00. The pIC50 was 7.28 in the assay on ARH-77; 9.97 in the assay with RL95-2; less than 7.00 with EB2; less than 7.00 with THP-1; less than 7.00 in the assay with CHP-126; 7.94 in the assay with SR. For the same compound, the negative logarithm of the IC50 (pIC50) in the assay with MONO-MAC-6 was less than 7.00; in the assay with NB1 it was less than 7.00; in the assay with LC4-1 it was 7.06; with NCI-H322M it was less than 7.00; in the assay with OPM-2 it was 8.38; with NCI-H1963, less than 7.00. For the same compound, the pIC50 with NCI-H716 was less than 7.00; with NCI-H128, less than 7.00; in the assay on LC-1F it was less than 7.00; with NCI-H2196, less than 7.00; in the assay with BOKU, less than 7.00; with RPMI 8402, 7.66. Besides, the pIC50 with NCI-H2171, in the assay on P31-FUJ and with SKM-1 was less than 7.00 each time.

With `CN(Cc1cnc2nc(N)nc(N)c2n1)c1ccc(C(=O)N[C@@H](CCC(=O)O)C(=O)O)cc1` [METHOTREXATE], the pIC50 with BALL-1 is less than 6.70; in the assay with LU-135 it was less than 6.70; in the assay on H-EMC-SS, less than 6.70; with NBsusSR, 7.53; in the assay with KNS-62 it was less than 6.70; in the assay with NCI-H1573, less than 6.70. In addition, the pIC50 with ZR-75-30, with HSC-4, in the assay on D-566MG, in the assay on TI-73 and with OC-314 was less than 6.70 each time.

Take `O=C(NOCC1CC1)c1ccc(F)c(F)c1Nc1ccc(I)cc1Cl` [CI-1040]: the pIC50 in the assay on BALL-1 was less than 5.00; with LU-135 it was 5.12; in the assay with H-EMC-SS, 5.89; with NBsusSR, 5.25; in the assay on KNS-62, 5.60; in the assay on NCI-H1573, less than 5.00. Besides, the pIC50 is less than 5.00 with ZR-75-30; 6.61 in the assay with HSC-4; 5.18 in the assay on D-566MG; less than 5.00 in the assay with TI-73; less than 5.00 in the assay on OC-314; less than 5.00 with NCI-H2009.

Take `Cn1cc(C2=C(c3ccc(Cl)cc3Cl)C(=O)NC2=O)c2ccccc21` [SB-216763]: the pIC50 with BALL-1, with LU-135, with H-EMC-SS, in the assay with NBsusSR, with KNS-62 and in the assay on NCI-H1573 was less than 5.00 throughout. In addition, the pIC50 with ZR-75-30, with HSC-4, with D-566MG, with TI-73, in the assay with OC-314 and with NCI-H2009 was less than 5.00 each time.

In the case of `CN(C)C/C=C/C(=O)Nc1cc2c(Nc3ccc(F)c(Cl)c3)ncnc2cc1O[C@H]1CCOC1` [AFATINIB], the pIC50 in the assay on BALL-1, with LU-135, in the assay on H-EMC-SS, with NBsusSR, in the assay with KNS-62 and in the assay on NCI-H1573 was less than 6.30 each time. The pIC50 was 7.02 in the assay with ZR-75-30; 7.76 in the assay on HSC-4; less than 6.30 in the assay with D-566MG; 6.83 in the assay on TI-73; less than 6.30 in the assay on OC-314; less than 6.30 in the assay on NCI-H2009.
